Results as given in a compilation of properties of binary mixtures (doi:10.1007/s11814-009-0129-3).

Experiment: xn = mol fraction of the nth substance listed
Details: 101 kPa

F[B-](F)(F)F.[Li+] + CCCC[n+]1ccn(C)c1.[I-]
electrical conductivity [S/m]
Details	298.15 K	303.15 K	308.15 K	313.15 K	318.15 K	323.15 K
x1 = 0.1	0.0385	0.0432	–	0.0519	0.0577	0.0647
x1 = 0.2	–	0.0477	0.0515	0.0584	0.0704	–
x1 = 0.3	0.042	0.0488	0.0505	0.0512	0.0597	0.088
x1 = 0.4	0.035	0.0392	0.0461	0.0477	0.0513	0.0554
x1 = 0.5	0.0312	0.0373	0.0425	0.0463	0.0501	0.0549

CCCC[n+]1ccn(C)c1.[I-] + [Li+].[B-](F)(F)(F)F
x2 = 0
Details	electrical conductivity [S/m]
298.15 K	0.0234
303.15 K	0.0262
313.15 K	0.0308
318.15 K	0.0326
323.15 K	0.0345
